One may read the IC50 as the concentration that inhibits the measured activity by half.

Read-outs that look alike come from different tables or passages of the source.

For the assay, the target named is T1, hIKK-2 (Homo sapiens, UniProt O14920).
T1 construct: gene IKBKB
T1 sequence (O14920 1-756): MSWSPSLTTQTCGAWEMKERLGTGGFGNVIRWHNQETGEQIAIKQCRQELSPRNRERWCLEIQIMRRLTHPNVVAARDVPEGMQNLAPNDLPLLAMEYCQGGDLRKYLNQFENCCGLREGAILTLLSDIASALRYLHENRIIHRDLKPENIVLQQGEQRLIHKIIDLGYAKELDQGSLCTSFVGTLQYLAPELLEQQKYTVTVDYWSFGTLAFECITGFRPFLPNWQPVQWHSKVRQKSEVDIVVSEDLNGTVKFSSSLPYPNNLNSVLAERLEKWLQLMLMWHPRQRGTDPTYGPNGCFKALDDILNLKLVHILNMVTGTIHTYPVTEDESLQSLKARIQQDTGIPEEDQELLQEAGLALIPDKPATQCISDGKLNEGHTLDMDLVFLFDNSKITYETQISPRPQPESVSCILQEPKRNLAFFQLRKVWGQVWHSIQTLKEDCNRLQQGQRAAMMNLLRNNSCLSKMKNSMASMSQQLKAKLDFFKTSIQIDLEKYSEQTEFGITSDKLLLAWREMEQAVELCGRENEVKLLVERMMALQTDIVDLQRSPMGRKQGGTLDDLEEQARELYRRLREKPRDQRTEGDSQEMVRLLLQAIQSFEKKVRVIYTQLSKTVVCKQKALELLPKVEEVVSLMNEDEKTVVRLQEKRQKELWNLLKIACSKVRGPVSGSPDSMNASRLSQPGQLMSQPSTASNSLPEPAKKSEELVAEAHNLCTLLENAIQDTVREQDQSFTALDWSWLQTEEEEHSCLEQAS
As to the kind of experiment: K-LISA IKKβ ELISA kinase assay with GST-IκBα substrate. The class given is biochemical. (In general: ELISA stands for enzyme-linked immunosorbent assay.)

`CCOc1ccc2nc3cc(N)ccc3c(N)c2c1` [ZINC03871389, ethacridine]: the IC50 (read-out: IC50) stood at 184 µM. The molecule `COCc1c(CN)cnc(C)c1N` [ZINC03683886] returned an IC50 of 2070 µM. In the case of `OC[C@@H]1CCCN2CCCC[C@H]12` [ZINC01669260, lupinine], for the setting “read-out: IC50”, the IC50 came out at 3320 µM.

Source of the values: paper PMC3044726, “Identification of Human IKK-2 Inhibitors of Natural Origin (Part I): Modeling of the IKK-2 Kinase Domain, Virtual Screening and Activity Assays” (PLoS ONE, 2011).
